Positions of bridges follow the written chain, without caps; N, C: chain ends. Non-standard residues stand in square brackets, D forms with d. Residues, ends and D or L forms follow the SMILES beside them. Cha = N[C@@H](CC1CCCCC1)C(=O)O; Orn = NCCC[C@H](N)C(=O)O; Dab = NCC[C@H](N)C(=O)O; Dap = NC[C@H](N)C(=O)O; Mpa = O=C(O)CCS
How the values were obtained:
Rattus norvegicus [1] = organism: Rattus norvegicus; assay: Antidiuretic activity in rat; assay type: functional, Urine
Rattus norvegicus [2] = organism: Rattus norvegicus; assay: Vasopressor activity in rat; assay type: functional
[3] = target: T1, Oxytocin receptor (Homo sapiens) (UniProt P30559); assay: (§1) Activity at OT receptor assessed as oxytocic activity in absence of magnesium; assay type: functional; conditions: filed as agonist
T1 sequence (whole entry): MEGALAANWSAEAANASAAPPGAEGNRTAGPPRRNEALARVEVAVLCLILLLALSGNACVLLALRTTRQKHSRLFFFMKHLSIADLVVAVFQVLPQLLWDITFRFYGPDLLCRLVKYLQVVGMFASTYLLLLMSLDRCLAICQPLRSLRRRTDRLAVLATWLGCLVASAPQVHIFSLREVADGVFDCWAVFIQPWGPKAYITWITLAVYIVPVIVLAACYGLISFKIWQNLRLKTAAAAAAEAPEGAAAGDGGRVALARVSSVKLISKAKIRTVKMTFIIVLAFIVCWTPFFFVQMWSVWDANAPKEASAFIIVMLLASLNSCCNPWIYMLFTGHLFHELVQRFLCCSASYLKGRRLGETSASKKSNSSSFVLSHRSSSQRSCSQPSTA

Vasopressin V2 receptor = Vasopressin V2 receptor (Rattus norvegicus, UniProt Q00788); assay: Displacement of [3H]AVP from vasopressin V2 receptor in rat kidney membranes; assay type: cell membranes, Membrane
Vasopressin V1a receptor = Vasopressin V1a receptor (Rattus norvegicus, UniProt P30560); assay: Displacement of [3H]AVP from vasopressin V1a receptor in rat liver membrane; assay type: cell membranes
Oxytocin receptor [4] = target: T2, Oxytocin receptor (Rattus norvegicus, UniProt P70536); assay: Displacement of [3H]AVP from rat OT receptor expressed in CHO cells; assay type: cell-based
T2 sequence (P70536 whole entry): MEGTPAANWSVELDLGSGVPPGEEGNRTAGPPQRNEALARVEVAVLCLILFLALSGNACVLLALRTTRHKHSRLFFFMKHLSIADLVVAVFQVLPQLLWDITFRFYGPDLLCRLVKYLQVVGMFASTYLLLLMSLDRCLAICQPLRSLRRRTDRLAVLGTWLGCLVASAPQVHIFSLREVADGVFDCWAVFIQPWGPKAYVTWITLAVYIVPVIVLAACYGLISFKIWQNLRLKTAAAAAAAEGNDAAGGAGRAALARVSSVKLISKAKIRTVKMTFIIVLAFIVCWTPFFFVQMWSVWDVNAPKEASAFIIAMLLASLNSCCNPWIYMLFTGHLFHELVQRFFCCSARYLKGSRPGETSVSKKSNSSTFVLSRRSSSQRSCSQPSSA

[5] = target: Vasopressin V2 receptor (Rattus norvegicus) (UniProt Q00788); assay: Activity at vasopressin V2 receptor in rat kidney membranes assessed as adenylate cyclase activity; assay type: functional, cell membranes; conditions: Membrane, filed as agonist
[6] = target: Vasopressin V2 receptor (Rattus norvegicus) (UniProt Q00788); assay: Activity at vasopressin V2 receptor in rat kidney membranes assessed as maximal adenylate cyclase activity relative to AVP; assay type: functional, cell membranes; conditions: Membrane, filed as agonist
Oxytocin receptor [7] = target: T3, Oxytocin receptor (Homo sapiens, UniProt P30559); assay: as §1; assay type: functional; conditions: read-out: pA2 (converted)
T3 sequence (P30559 whole entry): T1 sequence (whole entry)

[8] = target: T4, Vasopressin V1b receptor (Rattus norvegicus) (UniProt P48974); conditions: AtT20, filed as agonist
T4 sequence (whole entry): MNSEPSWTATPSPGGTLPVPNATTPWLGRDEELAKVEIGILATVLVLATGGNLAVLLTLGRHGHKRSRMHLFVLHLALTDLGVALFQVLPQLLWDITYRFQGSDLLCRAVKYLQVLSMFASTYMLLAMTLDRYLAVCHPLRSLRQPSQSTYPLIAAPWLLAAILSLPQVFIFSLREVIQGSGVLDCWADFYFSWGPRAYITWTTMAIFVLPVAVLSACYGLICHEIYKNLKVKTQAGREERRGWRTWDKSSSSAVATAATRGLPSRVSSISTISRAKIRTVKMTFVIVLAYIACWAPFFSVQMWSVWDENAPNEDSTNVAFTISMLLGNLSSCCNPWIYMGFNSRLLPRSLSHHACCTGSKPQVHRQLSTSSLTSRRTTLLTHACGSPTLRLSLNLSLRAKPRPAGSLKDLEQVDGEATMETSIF

Chain of Vasopressin V2 receptor (Rattus norvegicus) (Q00788 whole entry): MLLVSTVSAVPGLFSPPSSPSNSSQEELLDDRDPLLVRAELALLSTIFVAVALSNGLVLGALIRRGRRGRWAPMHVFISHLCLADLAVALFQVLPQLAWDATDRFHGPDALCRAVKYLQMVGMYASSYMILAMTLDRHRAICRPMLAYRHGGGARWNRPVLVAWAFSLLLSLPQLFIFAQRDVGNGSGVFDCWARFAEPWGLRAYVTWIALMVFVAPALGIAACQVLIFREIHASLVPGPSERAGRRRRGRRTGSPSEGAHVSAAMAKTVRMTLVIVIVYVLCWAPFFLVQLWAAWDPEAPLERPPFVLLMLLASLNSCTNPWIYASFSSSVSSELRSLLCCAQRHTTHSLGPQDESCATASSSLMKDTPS
Chain of Vasopressin V2 receptor (Q00788 whole entry): as above
Chain of Vasopressin V1a receptor (P30560 whole entry): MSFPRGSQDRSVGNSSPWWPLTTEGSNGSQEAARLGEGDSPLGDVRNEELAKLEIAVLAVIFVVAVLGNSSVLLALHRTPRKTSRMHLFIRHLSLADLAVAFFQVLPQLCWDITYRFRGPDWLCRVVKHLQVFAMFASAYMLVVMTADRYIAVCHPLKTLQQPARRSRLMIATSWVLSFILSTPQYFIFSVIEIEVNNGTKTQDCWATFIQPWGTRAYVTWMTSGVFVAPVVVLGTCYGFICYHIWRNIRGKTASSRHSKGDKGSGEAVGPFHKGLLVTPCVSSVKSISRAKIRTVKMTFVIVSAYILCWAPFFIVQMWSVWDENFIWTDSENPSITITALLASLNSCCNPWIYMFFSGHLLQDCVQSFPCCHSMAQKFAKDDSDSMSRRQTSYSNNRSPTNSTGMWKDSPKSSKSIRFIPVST

Activity [3] [U/mg] | Ki (Vasopressin V2 receptor) | Ki (Vasopressin V1a receptor) | Ki (Oxytocin receptor [4]) | Kact [5] [nM] | Activity [6] [%] | Kb (Oxytocin receptor [7]) | SMILES | Activity (Rattus norvegicus [1]) [U/mg] | Activity (Rattus norvegicus [2]) [U/mg] | Kact [8] [nM]
– | 600 nM (antagonist) | 9100 nM (antagonist) | 590 nM (antagonist) | – | – | 331 nM (agonist) | NCCCC[C@H](NC(=O)[C@@H]1CCCN1C(=O)[C@@H]1CSSCCC(=O)N[C@@H](Cc2ccc(O)cc2)C(=O)N[C@@H](Cc2ccccc2)C(=O)N[C@@H](CC2CCCCC2)C(=O)N[C@@H](CC(N)=O)C(=O)N1)C(=O)NCC(N)=O ([Mpa]YF[Cha]NCPKG-NH2; disulfide 1-6) | 0.82 | 0.043 | –
– | 450 nM (antagonist) | 4400 nM (antagonist) | 430 nM (antagonist) | 174 | 75 | 447 nM (agonist) | NCC[C@H](NC(=O)[C@@H]1CCCN1C(=O)[C@@H]1CSSCCC(=O)N[C@@H](Cc2ccc(O)cc2)C(=O)N[C@@H](Cc2ccccc2)C(=O)N[C@@H](CC2CCCCC2)C(=O)N[C@@H](CC(N)=O)C(=O)N1)C(=O)NCC(N)=O ([Mpa]YF[Cha]NCP[Dab]G-NH2; disulfide 1-6) | 1 | 0.18 | –
– | 1050 nM (antagonist) | 1800 nM (antagonist) | 1200 nM (antagonist) | – | – | 479 nM (agonist) | NC[C@H](NC(=O)[C@@H]1CCCN1C(=O)[C@@H]1CSSCCC(=O)N[C@@H](Cc2ccc(O)cc2)C(=O)N[C@@H](Cc2ccccc2)C(=O)N[C@@H](CC2CCCCC2)C(=O)N[C@@H](CC(N)=O)C(=O)N1)C(=O)NCC(N)=O ([Mpa]YF[Cha]NCP[Dap]G-NH2; disulfide 1-6) | 0.3 | 0.002 | –
– | 450 nM (antagonist) | 2900 nM (antagonist) | 550 nM (antagonist) | – | – | 282 nM (agonist) | NCCC[C@H](NC(=O)[C@@H]1CCCN1C(=O)[C@@H]1CSSCCC(=O)N[C@@H](Cc2ccc(O)cc2)C(=O)N[C@@H](Cc2ccccc2)C(=O)N[C@@H](CC2CCCCC2)C(=O)N[C@@H](CC(N)=O)C(=O)N1)C(=O)NCC(N)=O ([Mpa]YF[Cha]NCP[Orn]G-NH2; disulfide 1-6) | 1 | 0.22 | –

Continued, compound first:

SMILES | Activity [3] [U/mg] | Ki (Vasopressin V2 receptor) | Ki (Vasopressin V1a receptor) | Ki (Oxytocin receptor [4]) | Kact [5] [nM] | Activity [6] [%] | Kb (Oxytocin receptor [7]) | Activity (Rattus norvegicus [1]) [U/mg] | Activity (Rattus norvegicus [2]) [U/mg] | Kact [8] [nM]
CC(C)C[C@@H]1NC(=O)[C@H](Cc2ccccc2)NC(=O)[C@H](Cc2ccc(O)cc2)NC(=O)CCSSC[C@@H](C(=O)N2CCC[C@H]2C(=O)N[C@@H](CCCCN)C(=O)NCC(N)=O)NC(=O)[C@H](CC(N)=O)NC1=O ([Mpa]YFLNCPKG-NH2; disulfide 1-6) | 0.054 | 100 nM (antagonist) | 3800 nM (antagonist) | 64 nM (antagonist) | 196 | 76 | – | 10.5 | 0.9 | –
CC(C)C[C@@H]1NC(=O)[C@H](Cc2ccccc2)NC(=O)[C@H](Cc2ccc(O)cc2)NC(=O)CCSSC[C@@H](C(=O)N2CCC[C@H]2C(=O)N[C@@H](CN)C(=O)NCC(N)=O)NC(=O)[C@H](CC(N)=O)NC1=O ([Mpa]YFLNCP[Dap]G-NH2; disulfide 1-6) | 0.046 | 240 nM (antagonist) | 3300 nM (antagonist) | 134 nM (antagonist) | 300 | 97 | – | 0.7 | 0.05 | –
NC(=O)CNC(=O)[C@H](CCCN=C(N)N)NC(=O)[C@@H]1CCCN1C(=O)[C@@H]1CSSCCC(=O)N[C@@H](Cc2ccc(O)cc2)C(=O)N[C@@H](Cc2ccccc2)C(=O)N[C@@H](CC2CCCCC2)C(=O)N[C@@H](CC(N)=O)C(=O)N1 ([Mpa]YF[Cha]NCPRG-NH2; disulfide 1-6) | – | 12.7 nM (antagonist) | 2300 nM (antagonist) | – | – | 86 | – | 133.6 | 0.067 | –
NCCCC[C@H](NC(=O)[C@@H]1CCCN1C(=O)[C@@H]1CSSCCC(=O)N[C@@H](Cc2ccc(O)cc2)C(=O)N[C@@H](Cc2ccccc2)C(=O)N[C@@H](CCCN)C(=O)N[C@@H](CC(N)=O)C(=O)N1)C(=O)NCC(N)=O ([Mpa]YF[Orn]NCPKG-NH2; disulfide 1-6) | 3.1 | 51 nM (antagonist) | 2800 nM (antagonist) | 22 nM (antagonist) | – | – | – | 7.8 | 0.23 | –
NCCC[C@@H]1NC(=O)[C@H](Cc2ccccc2)NC(=O)[C@H](Cc2ccc(O)cc2)NC(=O)CCSSC[C@@H](C(=O)N2CCC[C@H]2C(=O)N[C@@H](CCCN)C(=O)NCC(N)=O)NC(=O)[C@H](CC(N)=O)NC1=O ([Mpa]YF[Orn]NCP[Orn]G-NH2; disulfide 1-6) | 2.8 | 76 nM (antagonist) | 1300 nM (antagonist) | 37 nM (antagonist) | – | – | – | 7.9 | 1.9 | –
N=C(N)NCCC[C@H](NC(=O)[C@@H]1CCCN1C(=O)[C@@H]1CSSC[C@H](N)C(=O)N[C@@H](Cc2ccc(O)cc2)C(=O)N[C@@H](Cc2ccccc2)C(=O)N[C@@H](CCC(N)=O)C(=O)N[C@@H](CC(N)=O)C(=O)N1)C(=O)NCC(N)=O [VASOPRESSIN] | – | – | – | – | 0.32 | – | – | 323 | – | 2.3
